#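 Values below derive from 48-hour exposures of cells grown in 96-well plates, with endpoints linearly interpolated between the two concentrations bracketing the appropriate inhibition level. GI50 = concentration required for 50% inhibition of growth. TGI: concentration producing complete growth inhibition.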
# Key:
# Assay in all cases: growth of human tumour cells (NCI), 48 h
# CCRF-CEM leukemia = tested on: CCRF-CEM leukemia
# NCI/ADR-RES ovarian = tested on: NCI/ADR-RES ovarian
# HOP-62 NSCLC = tested on: HOP-62 NSCLC
# ACHN renal = tested on: ACHN renal
# 786-0 renal = tested on: 786-0 renal
# SNB-19 CNS = tested on: SNB-19 CNS
# A549 NSCLC = tested on: A549 NSCLC
# HS 578T breast = tested on: HS 578T breast
# PC-3 prostate = tested on: PC-3 prostate
# NCI-H23 lung = tested on: NCI-H23 lung
# SK-MEL-28 melanoma = tested on: SK-MEL-28 melanoma
# HT29 colon = tested on: HT29 colon
# KM12 colon = tested on: KM12 colon
# SN12C renal = tested on: SN12C renal
# EKVX NSCLC = tested on: EKVX NSCLC
# IGROV1 ovarian = tested on: IGROV1 ovarian
# SR leukemia = tested on: SR leukemia
# TK-10 renal = tested on: TK-10 renal
# UO-31 renal = tested on: UO-31 renal
# SF-539 CNS = tested on: SF-539 CNS
# SNB-75 CNS = tested on: SNB-75 CNS
# SK-OV-3 ovarian = tested on: SK-OV-3 ovarian
# UACC-257 melanoma = tested on: UACC-257 melanoma
# OVCAR-8 ovarian = tested on: OVCAR-8 ovarian
# LOX IMVI melanoma = tested on: LOX IMVI melanoma
# M14 melanoma = tested on: M14 melanoma
# HOP-92 NSCLC = tested on: HOP-92 NSCLC
# NCI-H522 lung = tested on: NCI-H522 lung
# HL-60(TB) leukemia = tested on: HL-60(TB) leukemia
# SF-295 CNS = tested on: SF-295 CNS
# HCT-15 colon = tested on: HCT-15 colon
# BT-549 breast = tested on: BT-549 breast
# OVCAR-4 ovarian = tested on: OVCAR-4 ovarian
# A498 renal = tested on: A498 renal
# MCF7 breast = tested on: MCF7 breast
# OVCAR-5 ovarian = tested on: OVCAR-5 ovarian
# NCI-H460 lung = tested on: NCI-H460 lung
# NCI-H226 lung = tested on: NCI-H226 lung
# MDA-MB-435 = tested on: MDA-MB-435
# SW-620 colon = tested on: SW-620 colon
# HCC-2998 colon = tested on: HCC-2998 colon
# MOLT-4 leukemia = tested on: MOLT-4 leukemia
# SK-MEL-5 melanoma = tested on: SK-MEL-5 melanoma
# COLO 205 colon = tested on: COLO 205 colon
# RPMI-8226 leukemia = tested on: RPMI-8226 leukemia
# SK-MEL-2 melanoma = tested on: SK-MEL-2 melanoma
# DU-145 prostate = tested on: DU-145 prostate
# SF-268 CNS = tested on: SF-268 CNS
# K-562 leukemia = tested on: K-562 leukemia
# HCT-116 colon = tested on: HCT-116 colon
# MDA-MB-231 breast = tested on: MDA-MB-231 breast
# UACC-62 melanoma = tested on: UACC-62 melanoma
# OVCAR-3 ovarian = tested on: OVCAR-3 ovarian
# U251 CNS = tested on: U251 CNS
structure (smiles),measurement,setting,value
COC(=O)[C@@H](C)C[C@H](Cc1ccccc1)NC(=O)c1csc(CC[C@H](C(C)C)N(C)C(=O)[C@@H](NC(=O)[C@H]2CCCCN2C)C(C)C)n1,GI50,CCRF-CEM leukemia,295 nM
same,TGI,CCRF-CEM leukemia,> 33300 nM
same,GI50,NCI/ADR-RES ovarian,3460 nM
same,TGI,NCI/ADR-RES ovarian,> 33300 nM
same,GI50,HOP-62 NSCLC,536 nM
same,TGI,HOP-62 NSCLC,> 33300 nM
same,GI50,ACHN renal,324 nM
same,TGI,ACHN renal,> 33300 nM
same,GI50,786-0 renal,382 nM
same,TGI,786-0 renal,> 30200 nM
same,GI50,SNB-19 CNS,168 nM
same,TGI,SNB-19 CNS,> 33300 nM
same,GI50,A549 NSCLC,1270 nM
same,TGI,A549 NSCLC,> 33300 nM
same,GI50,HS 578T breast,761 nM
same,TGI,HS 578T breast,15800 nM
same,GI50,PC-3 prostate,383 nM
same,TGI,PC-3 prostate,> 33300 nM
same,GI50,NCI-H23 lung,882 nM
same,TGI,NCI-H23 lung,> 33300 nM
same,GI50,SK-MEL-28 melanoma,1450 nM
same,TGI,SK-MEL-28 melanoma,> 33300 nM
same,GI50,HT29 colon,211 nM
same,TGI,HT29 colon,6010 nM
same,GI50,KM12 colon,324 nM
same,TGI,KM12 colon,> 33300 nM
same,GI50,SN12C renal,435 nM
same,TGI,SN12C renal,> 33300 nM
same,GI50,EKVX NSCLC,1330 nM
same,TGI,EKVX NSCLC,> 33300 nM
same,GI50,IGROV1 ovarian,291 nM
same,TGI,IGROV1 ovarian,> 33300 nM
same,GI50,SR leukemia,68.6 nM
same,TGI,SR leukemia,> 33300 nM
same,GI50,TK-10 renal,> 15200 nM
same,TGI,TK-10 renal,> 33300 nM
same,GI50,UO-31 renal,1660 nM
same,TGI,UO-31 renal,> 33300 nM
same,GI50,SF-539 CNS,444 nM
same,TGI,SF-539 CNS,1910 nM
same,GI50,SNB-75 CNS,222 nM
same,TGI,SNB-75 CNS,9200 nM
same,GI50,SK-OV-3 ovarian,451 nM
same,TGI,SK-OV-3 ovarian,> 33300 nM
same,GI50,UACC-257 melanoma,> 33300 nM
same,TGI,UACC-257 melanoma,> 33300 nM
same,GI50,OVCAR-8 ovarian,465 nM
same,TGI,OVCAR-8 ovarian,> 33300 nM
same,GI50,LOX IMVI melanoma,373 nM
same,TGI,LOX IMVI melanoma,> 33300 nM
same,GI50,M14 melanoma,262 nM
same,TGI,M14 melanoma,1520 nM
same,GI50,HOP-92 NSCLC,582 nM
same,TGI,HOP-92 NSCLC,> 26900 nM
same,GI50,NCI-H522 lung,65.6 nM
same,TGI,NCI-H522 lung,301 nM
same,GI50,HL-60(TB) leukemia,79.9 nM
same,TGI,HL-60(TB) leukemia,298 nM
same,GI50,SF-295 CNS,334 nM
same,TGI,SF-295 CNS,> 33300 nM
same,GI50,HCT-15 colon,604 nM
same,TGI,HCT-15 colon,> 33300 nM
same,GI50,BT-549 breast,179 nM
same,TGI,BT-549 breast,3810 nM
same,GI50,OVCAR-4 ovarian,991 nM
same,TGI,OVCAR-4 ovarian,> 33300 nM
same,GI50,A498 renal,190 nM
same,TGI,A498 renal,1560 nM
same,GI50,MCF7 breast,78 nM
same,TGI,MCF7 breast,> 33300 nM
same,GI50,OVCAR-5 ovarian,1260 nM
same,TGI,OVCAR-5 ovarian,> 33300 nM
same,GI50,NCI-H460 lung,381 nM
same,TGI,NCI-H460 lung,> 14500 nM
same,GI50,NCI-H226 lung,856 nM
same,TGI,NCI-H226 lung,> 23900 nM
same,GI50,MDA-MB-435,40.7 nM
same,TGI,MDA-MB-435,170 nM
same,GI50,SW-620 colon,164 nM
same,TGI,SW-620 colon,> 33300 nM
same,GI50,HCC-2998 colon,562 nM
same,TGI,HCC-2998 colon,> 33300 nM
same,GI50,MOLT-4 leukemia,440 nM
same,TGI,MOLT-4 leukemia,> 33300 nM
same,GI50,SK-MEL-5 melanoma,98.1 nM
same,TGI,SK-MEL-5 melanoma,747 nM
same,GI50,COLO 205 colon,190 nM
same,TGI,COLO 205 colon,1530 nM
same,GI50,RPMI-8226 leukemia,135 nM
same,TGI,RPMI-8226 leukemia,> 33300 nM
same,GI50,SK-MEL-2 melanoma,149 nM
same,TGI,SK-MEL-2 melanoma,> 33300 nM
same,GI50,DU-145 prostate,303 nM
same,TGI,DU-145 prostate,> 19700 nM
same,GI50,SF-268 CNS,722 nM
same,TGI,SF-268 CNS,> 33300 nM
same,GI50,K-562 leukemia,131 nM
same,TGI,K-562 leukemia,> 33300 nM
same,GI50,HCT-116 colon,235 nM
same,TGI,HCT-116 colon,> 14800 nM
same,GI50,MDA-MB-231 breast,318 nM
same,TGI,MDA-MB-231 breast,> 8800 nM
same,GI50,UACC-62 melanoma,140 nM
same,TGI,UACC-62 melanoma,> 33300 nM
same,GI50,OVCAR-3 ovarian,108 nM
same,GI50,U251 CNS,398 nM
same,TGI,U251 CNS,> 33300 nM

# Source: PubChem BioAssay (NCI)
